In PubChem BioAssay (NCI):
Several values for one entry are separate records, joined by “and”; a condition that tells them apart may be missing. Equal entries are not always repeated.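 Five compound concentrations were applied to cells in 96-well plates for 48 hours; endpoints were derived by simple linear interpolation of the resulting dose-response curve. Here, GI50 denotes the concentration required for 50% inhibition of growth. At the TGI there is no net growth.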

Tests used:
Experiment in all cases: NCI anticancer screen, dose series, 48 h
EKVX NSCLC = tested on: EKVX NSCLC
HS 578T breast = tested on: HS 578T breast
UO-31 renal = tested on: UO-31 renal
RPMI-8226 leukemia = tested on: RPMI-8226 leukemia
CAKI-1 renal = tested on: CAKI-1 renal
RXF 393 renal = tested on: RXF 393 renal
HOP-92 NSCLC = tested on: HOP-92 NSCLC
A549 NSCLC = tested on: A549 NSCLC
SNB-75 CNS = tested on: SNB-75 CNS
ACHN renal = tested on: ACHN renal

## COc1ccc(OC)c(-c2cc(-c3ccccc3)nn2-c2ccc(S(=O)(=O)NC(C)=O)cc2)c1
EKVX NSCLC
  GI50: 22.8 µM
  TGI: 41.8 µM
HS 578T breast
  GI50: 27.4 µM
  TGI: 80 µM
UO-31 renal
  GI50: 25.3 µM
  TGI: > 100 µM
RPMI-8226 leukemia
  GI50: 1.97 µM
  TGI: 4.36 µM
CAKI-1 renal
  GI50: 13.9 µM
  TGI: 33.9 µM
RXF 393 renal
  GI50: 4.07 µM
  TGI: 9.31 µM
HOP-92 NSCLC
  GI50: 14.4 µM
  TGI: 38.9 µM
A549 NSCLC
  GI50: 22.9 µM
  TGI: > 100 µM

## O=C(CC(C(=O)c1cccs1)c1ccc2c(c1)OCO2)c1ccc(Br)cc1 (stereo unspecified)
EKVX NSCLC
  TGI: > 100 µM
UO-31 renal
  TGI: > 100 µM
RPMI-8226 leukemia
  TGI: > 100 µM
CAKI-1 renal
  TGI: > 100 µM
SNB-75 CNS
  TGI: > 100 µM
A549 NSCLC
  TGI: > 100 µM
ACHN renal
  TGI: > 100 µM

## CN1C2CC(C#N)C1C=CC2=O (stereo unspecified)
EKVX NSCLC
  GI50: 14.7 µM and 62.1 µM
  TGI: 28 µM and > 100 µM
HS 578T breast
  GI50: 35.4 µM and > 100 µM
  TGI: > 100 µM
UO-31 renal
  GI50: 11.4 µM and > 100 µM
  TGI: 24.1 µM and > 100 µM
RXF 393 renal
  GI50: 16.7 µM and > 100 µM
  TGI: 36.1 µM and > 100 µM
HOP-92 NSCLC
  GI50: 14.5 µM and 62.3 µM
  TGI: 31.4 µM and > 100 µM
A549 NSCLC
  GI50: 18.1 µM and > 100 µM
  TGI: 46 µM and > 100 µM
ACHN renal
  GI50: 22.8 µM and > 100 µM
  TGI: 76.9 µM and > 100 µM

## COc1ccc(-c2cc(-c3ccc(Cl)cc3)c(C#N)c(=O)n2CCCCC(=O)Nc2ccccc2N)cc1
EKVX NSCLC
  GI50: 3.25 µM
  TGI: 91.3 µM
HS 578T breast
  GI50: 8.18 µM
  TGI: 52.4 µM
UO-31 renal
  GI50: 4.71 µM
  TGI: > 100 µM
RPMI-8226 leukemia
  GI50: 0.789 µM
  TGI: 6.68 µM
CAKI-1 renal
  GI50: 2.52 µM
  TGI: 20.2 µM
RXF 393 renal
  GI50: 1.69 µM
  TGI: 6.89 µM
HOP-92 NSCLC
  GI50: 2.59 µM
  TGI: 9.99 µM
A549 NSCLC
  GI50: 4.94 µM
  TGI: > 100 µM
ACHN renal
  GI50: 5.25 µM
  TGI: > 100 µM

## Cc1nc2c(n1CC(C)(C)C)C(=O)c1ccccc1C2=O
EKVX NSCLC
  TGI: > 100 µM
UO-31 renal
  TGI: > 100 µM
RXF 393 renal
  TGI: > 100 µM
HOP-92 NSCLC
  TGI: > 100 µM
SNB-75 CNS
  TGI: > 100 µM
A549 NSCLC
  TGI: > 100 µM
ACHN renal
  TGI: > 100 µM

## Clc1ccc([O][In]([O]c2ccc(Cl)cn2)[O]c2ccc(Cl)cn2)nc1
EKVX NSCLC
  GI50: > 100 µM
  TGI: > 100 µM
UO-31 renal
  GI50: > 100 µM
  TGI: > 100 µM
CAKI-1 renal
  GI50: > 100 µM
  TGI: > 100 µM
RXF 393 renal
  GI50: > 100 µM
  TGI: > 100 µM
SNB-75 CNS
  GI50: > 100 µM
  TGI: > 100 µM
A549 NSCLC
  GI50: > 100 µM
  TGI: > 100 µM

## Fc1cccc(Cl)c1C1SCc2nc3ccccc3n21 (stereo unspecified)
EKVX NSCLC
  TGI: > 100 µM
UO-31 renal
  TGI: > 100 µM
RPMI-8226 leukemia
  TGI: 60.2 µM
CAKI-1 renal
  TGI: > 100 µM
RXF 393 renal
  TGI: > 100 µM
HOP-92 NSCLC
  TGI: 37.8 µM
SNB-75 CNS
  TGI: > 100 µM
A549 NSCLC
  TGI: > 100 µM
ACHN renal
  TGI: > 100 µM

## Cc1cc(Cl)ccc1NC(=O)C(=O)Cc1nc2ccc(C(=O)c3ccccc3)cc2[nH]c1=O
EKVX NSCLC
  TGI: > 100 µM
UO-31 renal
  TGI: > 100 µM
CAKI-1 renal
  TGI: > 100 µM
RXF 393 renal
  TGI: > 100 µM
HOP-92 NSCLC
  TGI: > 100 µM
SNB-75 CNS
  TGI: > 100 µM
A549 NSCLC
  TGI: > 100 µM
ACHN renal
  TGI: > 100 µM

## COc1cc(C2c3cc4c(cc3[C@@H](Nc3ccc(N(C)C)cc3)[C@H]3COC(=O)C23)OCO4)cc(OC)c1O (stereo partly specified)
EKVX NSCLC
  GI50: 2.37 µM
  TGI: 9.57 µM and 9.64 µM
UO-31 renal
  GI50: 1.47 µM
  TGI: 3.27 µM and 6.69 µM
CAKI-1 renal
  GI50: 0.311 µM
  TGI: 1.03 µM and 3.42 µM
RXF 393 renal
  TGI: 4.33 µM
HOP-92 NSCLC
  GI50: 0.807 µM
  TGI: 11.4 µM and 17 µM
SNB-75 CNS
  GI50: 0.881 µM
  TGI: 9.26 µM and 10.9 µM
A549 NSCLC
  GI50: 0.173 µM
  TGI: 2.02 µM and 3.09 µM
ACHN renal
  GI50: 0.0694 µM
  TGI: 0.999 µM and 1.34 µM
